The values that follow are results of earlier work, collected in patent US8945508B2, “Dendrimer compositions and methods of synthesis” (priority 2009, dated 2015).

The conditions of data set [1]: more cytotoxic than IRINOTECAN

Consider `N.N.[Cl][Pt][Cl]` [cisplatin], for which the “in vivo activity in solid tumor models” value in the data set with solid tumors is listed as “no effect”.

Turning to `CC[C@@]1(O)C(=O)OCc2c1cc1n(c2=O)Cc2cc3cc(O)ccc3nc2-1` [SN-38, 10-hydroxycamptothecin], the “cytotoxicity relative to IRINOTECAN” value in data set [1] is listed as 1000 fold.
